From PMC12628701, “Paroxysmal Nocturnal Hemoglobinuria in Pregnancy Treated With Pegcetacoplan: Case Report and Pharmacokinetic Analysis” (EJHaem, 2025)

Columns and labels:
[1] = system: patient with hemolytic PNH and infant; test: Clinical tolerability and neonatal outcomes; type: in vivo, human
Method: (§1) Maternal and fetal outcomes were assessed throughout the third trimester and postpartum. Hematological response was evaluated using serial measurements of hemoglobin, hemolytic markers, and transfusion requirements. Complement levels/activity were measured using immunoturbidimetric assays for C3/C4 (Roche Diagnostics, Germany), and 50% hemolytic complement (CH50) by turbidimetric assay (Optilite, Binding Site, UK). Maternal clinical monitoring included evaluation for breakthrough hemolysis, thrombotic events, and other adverse events. Neonatal outcomes included gestational age at delivery, mode of delivery, birth weight, Apgar scores, and any complications identified during birth, hospitalization, or early follow‐up.

[2] = Pegcetacoplan concentration in maternal plasma (LC-MS/MS); type: in vivo, human; settings: LLOQ 10 µg/mL
Method: (§2) Maternal blood samples were obtained during routine collections pre‐ and postpartum. Cord blood samples were obtained from the umbilical vein at the time of delivery. Breast milk samples were collected on postpartum Days 1 and 2. Quantitative analysis of pegcetacoplan concentrations in maternal plasma, umbilical cord blood plasma, and breast milk was performed by an independent, accredited laboratory (Q^2 Solutions BioSciences, USA) using a validated liquid chromatography‐tandem mass spectrometry method incorporating pegcetacoplan‐d22 as internal standard, with lower limits of quantification of 10 and 20 µg/mL for plasma and breast milk, respectively.

[3] = Pegcetacoplan concentration in umbilical cord blood plasma (placental transfer, LC-MS/MS); type: in vivo, human; settings: umbilical vein at delivery, LLOQ 10 µg/mL
Method: as §2

[4] = Pegcetacoplan concentration in breast milk (lactational transfer, LC-MS/MS); type: in vivo, human
Method: as §2

[5] = system: patient with hemolytic PNH; test: Hematological response (hemoglobin, hemolytic markers, transfusion requirements) in pregnant patient with PNH; type: in vivo, human; settings: for Hapto: normal 0.3–2.0; for ARC: normal 10–100; for Hb: normal 115–160; for Bili: normal ≤ 21; for LDH: normal ≤ 214
Method: Prophylactic‐dose dalteparin was prescribed. […] Informed consent was obtained for off‐label use in pregnancy, pharmacokinetic sampling, and case reporting. Institutional ethics board review exemption was granted for this single‐patient case report.
as §1

complement C3, C4, CH50 = test: Complement levels/activity (C3/C4 immunoturbidimetric, CH50 turbidimetric) in patient; type: in vivo, human; settings: for CH50: normal 42–95; for C4: normal 0.1–0.4; for C3: normal 0.9–1.8
Method: as §1

hemoglobin response = settings: plasma concentration; no reference given; cited from earlier work
Method: Pegcetacoplan was undetectable in all three cord blood samples (< 10 µg/mL), with no identifiable mass spectrometry peaks, indicating no measurable transplacental drug transfer. Pegcetacoplan was likewise not detected in breast milk, with concentrations below the lower limit of quantification (< 20 µg/mL, Table 2).

cynomolgus monkeys = settings: cynomolgus monkey, in vivo; cited from earlier work
Source text: In our case, pegcetacoplan was undetectable in all cord blood and breast milk samples, ...

[6] = later the same day following delivery
[7] = 3 + 5 w gestation, on pegcetacoplan before switch to eculizumab
[8] = 28 + 1 w, date of pegcetacoplan reinitiation
[9] = 30 + 3 w, pegcetacoplan overlapping with eculizumab
[10] = 33 w, pegcetacoplan, dose escalation
[11] = 35 + 6 w, pegcetacoplan 1080 mg three times weekly
[12] = 37 + 2 w, date of delivery, pegcetacoplan
[13] = 37 w, pegcetacoplan 1080 mg three times weekly
[14] = after reinitiation of pegcetacoplan at 28 weeks' gestation
[15] = before pregnancy, pegcetacoplan 1080 mg subcutaneous twice-weekly

CCO[C@H]1CCN(Cc2c(OC)cc(C)c3[nH]ccc23)[C@H](c2ccc(C(=O)O)cc2)C1 [iptacopan]
Tolerability ([1]; before pregnancy, nausea unresponsive to antiemetics): discontinued due to persistent nausea

pegcetacoplan
Concentration, maternal plasma, Sample 2 [2, 6]: 625 µg/mL
Concentration, maternal plasma, Sample 3 [2, 6]: 587 µg/mL
Concentration, maternal plasma, Sample 1 ([2]; morning prior to scheduled cesarean delivery, pegcetacoplan 1080 mg s.c. three times weekly): 719 µg/mL
Concentration, cord blood plasma, Sample 1 [3]: < LLOQ
Concentration, cord blood plasma, Sample 2 [3]: < LLOQ
Concentration, cord blood plasma, Sample 3 [3]: < LLOQ
Concentration, breast milk, Sample 1 ([4]; postpartum Day 1, LLOQ 20 µg/mL): < LLOQ
Concentration, breast milk, Sample 2 ([4]; postpartum Day 2, LLOQ 20 µg/mL): < LLOQ
Hapto [5, 7]: 1.85 g/L
ARC [5, 7]: 8e+10 L⁻¹
Hb [5, 7]: 109 g/L
Bili [5, 7]: 7 µmol/L
LDH [5, 7]: 153 U/L
ARC [5, 8]: 1.73e+11 L⁻¹
Hb [5, 8]: 87 g/L
Bili [5, 8]: 12 µmol/L
LDH [5, 8]: 208 U/L
ARC [5, 9]: 1.72e+11 L⁻¹
Hb [5, 9]: 93 g/L
Bili [5, 9]: 9 µmol/L
LDH [5, 9]: 205 U/L
Hapto [5, 10]: 0.89 g/L
ARC [5, 10]: 1.74e+11 L⁻¹
Hb [5, 10]: 96 g/L
Bili [5, 10]: 7 µmol/L
LDH [5, 10]: 215 U/L
Hapto [5, 11]: 0.84 g/L
ARC [5, 11]: 1.78e+11 L⁻¹
Hb [5, 11]: 103 g/L
Bili [5, 11]: 4 µmol/L
LDH [5, 11]: 208 U/L
ARC [5, 12]: 1.2e+11 L⁻¹
Hb [5, 12]: 102 g/L
Bili [5, 12]: 3 µmol/L
LDH [5, 12]: 210 U/L
Hapto [5, 13]: 0.1 g/L
ARC [5, 13]: 1.29e+11 L⁻¹
Hb [5, 13]: 103 g/L
Bili [5, 13]: 3 µmol/L
LDH [5, 13]: 231 U/L
ARC ([5]; PP 6 w, pegcetacoplan): 1.46e+11 L⁻¹
Hb ([5]; PP 6 w, pegcetacoplan): 107 g/L
Bili ([5]; PP 6 w, pegcetacoplan): 4 µmol/L
LDH ([5]; PP 6 w, pegcetacoplan): 203 U/L
ARC ([5]; PP 1 d, pegcetacoplan): 1.03e+11 L⁻¹
Hb ([5]; PP 1 d, pegcetacoplan): 88 g/L
Bili ([5]; PP 1 d, pegcetacoplan): 3 µmol/L
LDH ([5]; PP 1 d, pegcetacoplan): 378 U/L
ARC ([5]; PP 2 d, pegcetacoplan): 1.07e+11 L⁻¹
Hb ([5]; PP 2 d, pegcetacoplan): 86 g/L
Bili ([5]; PP 2 d, pegcetacoplan): 3 µmol/L
LDH ([5]; PP 2 d, pegcetacoplan): 351 U/L
ARC ([5]; PP 3 d, pegcetacoplan): 1.06e+11 L⁻¹
Hb ([5]; PP 3 d, pegcetacoplan): 86 g/L
Bili ([5]; PP 3 d, pegcetacoplan): 3 µmol/L
LDH ([5]; PP 3 d, pegcetacoplan): 327 U/L
Hapto ([5]; PP 10 d, pegcetacoplan): 1.34 g/L
ARC ([5]; PP 10 d, pegcetacoplan): 9.7e+10 L⁻¹
Hb ([5]; PP 10 d, pegcetacoplan): 89 g/L
Bili ([5]; PP 10 d, pegcetacoplan): 4 µmol/L
LDH ([5]; PP 10 d, pegcetacoplan): 280 U/L
Hemoglobin (range) during the third trimester [5, 14]: 92 to 103 g/L
Transfusions after resumption [5, 14]: no transfusions required
Hemoglobin stabilization [5, 15]: approximately 110 g/L
Transfusion status [5, 15]: achieved transfusion independence
CH50 (complement C3, C4, CH50; [10]): 17 U/mL
C4 (complement C3, C4, CH50; [11]): 0.43 g/L
C3 (complement C3, C4, CH50; [11]): 4.9 g/L
CH50 (complement C3, C4, CH50; [11]): 102 U/mL
C4 (complement C3, C4, CH50; [12]): 0.37 g/L
C3 (complement C3, C4, CH50; [12]): 4.7 g/L
CH50 (complement C3, C4, CH50; [12]): 88 U/mL
CH50 (complement C3, C4, CH50; [13]): 82 U/mL
CH50 (complement C3, C4, CH50; PP 6 w, pegcetacoplan): 99 U/mL
C4 (complement C3, C4, CH50; PP 1 d, pegcetacoplan): 0.34 g/L
C3 (complement C3, C4, CH50; PP 1 d, pegcetacoplan): 4.33 g/L
CH50 (complement C3, C4, CH50; PP 1 d, pegcetacoplan): 86.0 U/mL
C4 (complement C3, C4, CH50; PP 2 d, pegcetacoplan): 0.35 g/L
C3 (complement C3, C4, CH50; PP 2 d, pegcetacoplan): 4.5 g/L
CH50 (complement C3, C4, CH50; PP 2 d, pegcetacoplan): > 103 U/mL
C4 (complement C3, C4, CH50; PP 3 d, pegcetacoplan): 0.36 g/L
C3 (complement C3, C4, CH50; PP 3 d, pegcetacoplan): 4.44 g/L
CH50 (complement C3, C4, CH50; PP 3 d, pegcetacoplan): 97 U/mL
Infant complications ([1]; infant exposed in partial first and full third trimester, 10-month follow-up): no complications observed
EC99, effective concentration for maximum hemoglobin response (hemoglobin response): 597 µg/mL
Fetal loss (cynomolgus monkeys): increased fetal loss
Maternal toxicity or teratogenicity (cynomolgus monkeys): no evidence
Placental and breast milk transfer (cynomolgus monkeys): minimal
